Test results taken from ChEMBL document CHEMBL1156092, “Anthranilic sulfonamide CCK1/CCK2 dual receptor antagonists II: tuning of receptor selectivity and in vivo efficacy” (Bioorg Med Chem Lett, 2009).

Tests used:
[1] = Metabolic stability in human liver microsomes assessed as compound remaining after 15 mins; format: ADME, Microsome; conditions: read-out: Stability
[2] = Apparent permeability from apical to basolateral side in human Caco-2 cells; format: ADME, cell-based
[3] = Apparent permeability from basolateral to apical side in human Caco-2 cells; format: ADME, cell-based
[4] = Plasma half life in rat at 2 umol/kg, iv; format: ADME, organism-based
[5] = Volume of distribution at steady state in rat at 2 umol/kg, iv and 2 umol/kg, po; format: ADME, organism-based; conditions: in vivo, read-out: Vdss
[6] = Plasma clearance in rat at 2 umol/kg, iv; format: ADME, organism-based
[7] = Oral bioavailability in rat at 2 umol/kg; format: ADME, organism-based; conditions: in vivo
Homo sapiens = species on record: Homo sapiens; test: Ratio of pKi for human CCK-1R to pKi for human CCK-2R
[8] = molecular target: T1, Gastrin/cholecystokinin type B receptor (Homo sapiens, UniProt P32239); test: Displacement of [125I]-CCK-8S from human CCK-2R after 100 mins by liquid scintillation counting
T1 sequence (P32239 whole entry): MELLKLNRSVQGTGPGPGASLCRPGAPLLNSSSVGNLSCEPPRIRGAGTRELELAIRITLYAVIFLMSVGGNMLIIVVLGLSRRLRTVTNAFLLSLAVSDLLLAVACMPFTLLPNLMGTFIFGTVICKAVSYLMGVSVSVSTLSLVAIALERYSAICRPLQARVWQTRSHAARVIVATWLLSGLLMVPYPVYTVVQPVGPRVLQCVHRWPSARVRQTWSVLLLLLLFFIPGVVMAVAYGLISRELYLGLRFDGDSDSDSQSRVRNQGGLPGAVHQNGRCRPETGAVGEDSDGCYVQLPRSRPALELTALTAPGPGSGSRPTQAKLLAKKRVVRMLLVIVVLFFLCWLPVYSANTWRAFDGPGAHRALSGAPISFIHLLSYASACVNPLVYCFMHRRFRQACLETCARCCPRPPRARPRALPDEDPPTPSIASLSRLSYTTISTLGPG

Rattus norvegicus [9] = test: Inhibition of CCK8s-stimulated plasma amylase release in rat assessed as reduction in plasma amylase at 30 umol/kg, po dosed 60 mins before 10 nmol/kg, sc CCK8s challenge and measured after 6 hrs; format: functional
Rattus norvegicus [10] = test: Inhibition of iv dosed pentagastrin-stimulated gastric acid secretion in iv dosed anesthetized Ghosh and Schild rat model assessed as decrease in gastric lumen perfusate pH; format: functional, Stomach; conditions: for ED50: Rattus norvegicus, Stomach, iv

| Structure (SMILES) | remaining at 0.25 h [1] [%] | Papp A→B [2] [×10⁻⁶ cm/s] | Papp B→A [3] [×10⁻⁶ cm/s] | half-life [4] [h] | Vd [5] [L/kg] | clearance [6] [mL/min/kg] | bioavailability [7] [%] | Ratio pKi (Homo sapiens) | Ki [8] [µM] | inhibition (INH) (Rattus norvegicus [9]) [%] | pED50 (Rattus norvegicus [10]) | ED50 (Rattus norvegicus [10]) [µmol/kg] |
| --- | --- | --- | --- | --- | --- | --- | --- | --- | --- | --- | --- | --- |
| O=C(N[C@@H](Cc1ccc(Cl)c(Cl)c1)C(=O)O)c1ccc(I)cc1NS(=O)(=O)c1cccc2nsnc12 | – | – | – | – | – | – | – | 0.9 | 0.0251 | 45 | 5.1 | 7.9 |
| O=C(N[C@@H](Cc1ccc(F)c(Br)c1)C(=O)O)c1cc(Cl)c(Cl)cc1NS(=O)(=O)c1cccc2nccnc12 | 65 | 0.1 | 1.05 | 7 | 0.129 | 2 | 9 | 1.4 | – | -5 | – | – |
| O=C(N[C@@H](Cc1ccc(F)c(Br)c1)C(=O)O)c1ccc(I)cc1NS(=O)(=O)c1cccc2nsnc12 | – | – | – | 6.4 | 0.215 | 3.1 | 14 | 1.5 | – | – | – | – |
| O=C(N[C@@H](Cc1ccc(Cl)c(Br)c1)C(=O)O)c1ccc(Br)cc1NS(=O)(=O)c1cccc2nsnc12 | 61 | 0.1 | 0.19 | – | – | – | – | 1 | – | – | – | – |
| O=C(N[C@@H](Cc1ccc(Cl)c(Br)c1)C(=O)O)c1ccc(Br)cc1NS(=O)(=O)c1cccc2nccnc12 | 69 | 0.1 | 1.97 | – | – | – | – | 1 | – | 65 | – | – |

The next lines start with results.

| remaining at 0.25 h [1] [%] | Papp A→B [2] [×10⁻⁶ cm/s] | Papp B→A [3] [×10⁻⁶ cm/s] | half-life [4] [h] | Vd [5] [L/kg] | clearance [6] [mL/min/kg] | bioavailability [7] [%] | Ratio pKi (Homo sapiens) | Ki [8] [µM] | Structure (SMILES) | inhibition (INH) (Rattus norvegicus [9]) [%] | pED50 (Rattus norvegicus [10]) | ED50 (Rattus norvegicus [10]) [µmol/kg] |
| --- | --- | --- | --- | --- | --- | --- | --- | --- | --- | --- | --- | --- |
| 65 | 0.04 | 1.25 | 1.3 | 0.105 | 3.1 | 11 | 1.4 | – | O=C(N[C@@H](Cc1ccc(F)c(Br)c1)C(=O)O)c1ccc(Cl)cc1NS(=O)(=O)c1cccc2nsnc12 | – | – | – |
| 47 | 0.05 | 0.34 | – | – | – | – | 1.6 | – | O=C(N[C@@H](Cc1ccc(F)c(Br)c1)C(=O)O)c1ccc(Br)cc1NS(=O)(=O)c1cccc2nsnc12 | – | – | – |
| 54 | 0.03 | 4.36 | – | – | – | – | 1.8 | – | O=C(N[C@@H](Cc1ccc(F)c(Br)c1)C(=O)O)c1ccc(Br)cc1NS(=O)(=O)c1cccc2nccnc12 | 67 | – | – |
| 76 | 0.02 | 0.37 | 6.2 | 0.203 | 2.6 | 21 | – | – | O=C(N[C@@H](Cc1ccc(F)c(Br)c1)C(=O)O)c1cc(Cl)c(Cl)cc1NS(=O)(=O)c1cccc2nsnc12 | 67 | 5.8 | 1.6 |
| 50 | 0.04 | 4.76 | 1.5 | 0.145 | 4.1 | 4 | 1.6 | – | O=C(N[C@@H](Cc1ccc(F)c(Br)c1)C(=O)O)c1ccc(Cl)cc1NS(=O)(=O)c1cccc2nccnc12 | – | – | – |
